Literature values, collected in US9198988B2, “Nanoparticulate manganese MRI contrast agents” (Kent State University, priority 2011, dated 2015).

What was measured:
[1] = commercial MRI contrast agents
[2] = commercial MRI contrast agents; remark: listed apart in the source

Row | LogKGdL (stability constant) [2] | SMILES | r1 (relaxivity) [1] [mM⁻¹ s⁻¹]
1 | 20.8 | O=C([O-])CN1CCN(CC(=O)[O-])CCN([C@H](CO)[C@H](O)CO)CCN(CC(=O)[O-])CC1.[Gd+3] (racemic) [Gadovist ®] | 5.3
2 | 25.3 | CNC[C@H](O)[C@@H](O)[C@H](O)[C@H](O)CO.O=C([O-])CN1CCN(CC(=O)[O-])CCN(CC(=O)O)CCN(CC(=O)[O-])CC1.[Gd+3] [Dotarem ®] | 4.2
3 | 22.2 | CNC[C@H](O)[C@@H](O)[C@H](O)[C@H](O)CO.CNC[C@H](O)[C@@H](O)[C@H](O)[C@H](O)CO.O=C([O-])CN(CCN(CC(=O)[O-])CC(=O)O)CCN(CC(=O)[O-])CC(=O)O.[Gd+3] [Magnevist ®] | 4.3
4 | 18.4 | CNC[C@H](O)[C@@H](O)[C@H](O)[C@H](O)CO.CNC[C@H](O)[C@@H](O)[C@H](O)[C@H](O)CO.O=C([O-])CN(CCN(CC(=O)[O-])CC(=O)O)CCN(CC(=O)O)C(COCc1ccccc1)C(=O)[O-].[Gd+3] (centres unmarked) [MultiHance] | 6.7
5 | 16.8 | CNC(=O)CN(CCN(CCN(CC(=O)[O-])CC(=O)NC)CC(=O)[O-])CC(=O)[O-].[Gd+3] [Omniscan ®] | 4.6
6 | 16.8 | COCCNC(=O)CN(CCN(CCN(CC(=O)[O-])CC(=O)NCCOC)CC(=O)[O-])CC(=O)[O-].[Gd+3] [OptiMARK] | 5.2
7 | 23.5 | CCOc1ccc(CC(CN(CCN(CC(=O)[O-])CC(=O)[O-])CC(=O)[O-])N(CC(=O)[O-])CC(=O)[O-])cc1.[Gd+3].[Na+].[Na+] (centres unmarked) [Primovist] | 7.3
8 |  | CC(O)CN1CCN(CC(=O)[O-])CCN(CC(=O)[O-])CCN(CC(=O)[O-])CC1.[Gd+3] (centres unmarked) [ProHance ®] | 4.4
9 | 23.2 | O=C([O-])CN(CCN(CC(=O)[O-])CC(COP(=O)([O-])OC1CCC(c2ccccc2)(c2ccccc2)CC1)N(CC(=O)[O-])CC(=O)[O-])CC(=O)[O-].[Gd+3].[Na+].[Na+].[Na+] (centres unmarked) [Vasovist] | 19
